Source: publication PMC4503722, “Novel Phenotypic Outcomes Identified for a Public Collection of Approved Drugs from a Publicly Accessible Panel of Assays” (PLoS ONE, 2015)
Where two headings read alike, the source gives them in different places.

Columns and labels:
[1] = system: INS-1E cells; test: cells; assay type: cell-based, rat; conditions: 5 mM glucose; for 5mMGluc_INS1E SecretionMod IC50/EC50: assay number 8;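 on all read-outs here: secreted insulin quantified by homogeneous immunoassay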
[2] = system: STC-1 cell line; assay type: cell-based, mouse; conditions: for mSTC-1 GLP1 Secretion IC50/EC50: assay number 13
[3] = system: ECFC/ADSC co-culture cell nuclei number
[4] = system: NCI-H716 cells; test: cells; assay type: cell-based, Human; conditions: for hNCI-H716 GLP1 Secretion IC50/EC50: assay number 12
[5] = system: endothelial tube formation in co-cultures of ECFCs and ADSCs treated with VEGF; test: cells; assay type: cell-based, human
[6] = system: RKO; test: cells; assay type: cell-based
[7] = system: Colo320; test: cells; assay type: cell-based
[8] = system: SNU-C1; test: cells; assay type: cell-based
[9] = system: DLD-1; test: cells; assay type: cell-based
[10] = system: HT-29; test: cells; assay type: cell-based
[11] = system: HCT116; test: cells; assay type: cell-based
[12] = system: SW480; test: cells; assay type: cell-based
[13] = system: HCT116 cells treated with a GSK3β inhibitor; test: cells; assay type: cell-based

| Structure (SMILES) | 5mMGluc_INS1E SecretionMod IC50/EC50 [1] [µM] | mSTC-1 GLP1 Secretion IC50/EC50 [2] [µM] | VEGF_ADSC\ECFC Angio Hoechst NucArea IC50/EC50 [3] [µM] | hNCI-H716 GLP1 Secretion IC50/EC50 [4] [µM] | VEGF_ADSC\ECFC Angio CD31 TubeArea IC50/EC50 [5] [µM] | further results |
| --- | --- | --- | --- | --- | --- | --- |
| Cc1cc(O)c2c(O)c3c(O)cccc3cc2c1 [NCGC00181774-02] |  |  |  |  |  | IC50/EC50, 5mMGluc_INS1E SecretionMod (assay number 8) [1]: > 33.33 µM; IC50/EC50, mSTC-1 GLP1 Secretion (assay number 13) ([2]; concentration response): 11.3101 µM; IC50/EC50, VEGF_ADSC\ECFC Angio Hoechst NucArea (assay number 3) [3]: > 10 µM; IC50/EC50, hNCI-H716 GLP1 Secretion (assay number 12) ([4]; concentration response): > 20 µM; IC50/EC50, VEGF_ADSC\ECFC Angio CD31 TubeArea (assay number 2) [5]: > 10 µM |
| CC(COc1ccccc1)NN (stereo not shown) [NCGC00183828-01] | > 33.33 | 27.1817 | > 10 | > 40 | > 10 |  |
| Cn1cc([S+](C)[O-])c(=O)c2ccc(F)cc21 (stereo not shown) [NCGC00183849-01] | > 33.33 | > 40 | > 10 | > 40 | > 10 |  |
| CN1CCN(CCCN2c3ccccc3Sc3ccc(C(F)(F)F)cc32)CC1.Cl.Cl [NCGC00186653-01] |  |  |  |  |  | IC50/EC50, Basal_Viability ATP RKO (assay number 29) [6]: 0.5653 µM; IC50/EC50, Basal_Viability ATP Colo 320 (assay number 27) [7]: 2.3611 µM; IC50/EC50, Basal_Viability ATP SNU-C1 (assay number 30) [8]: 2.6302 µM; IC50/EC50, mSTC-1 GLP1 Secretion (assay number 13) [2]: > 40 µM; IC50/EC50, Basal_Viability ATP DLD-1 (assay number 23) [9]: 7.3544 µM; IC50/EC50, VEGF_ADSC\ECFC Angio Hoechst NucArea (assay number 3) [3]: > 10 µM; IC50/EC50, Basal_Viability ATP HT-29 (assay number 28) [10]: 2.8136 µM; IC50/EC50, Basal_Viability ATP HCT116 (assay number 25) [11]: 7.225 µM; IC50/EC50, Basal_Viability ATP SW480 (assay number 24) [12]: 2.723 µM; IC50/EC50, hNCI-H716 GLP1 Secretion (assay number 12) [4]: > 40 µM; IC50/EC50, VEGF_ADSC\ECFC Angio CD31 TubeArea (assay number 2) [5]: > 10 µM; IC50/EC50, GSK3b inh pretreated_Viability ATP HCT116 (assay number 26) [13]: 3.234 µM |
| COC(=O)C(Cl)C(=O)OC [NCGC00249607-02] | > 33.33 | 8.3651 | > 10 | > 40 | > 10 |  |
| NC(=O)C1(N2CCCCC2)CCN(CCCN2c3ccccc3CCc3ccc(Cl)cc32)CC1 [NCGC00253595-01] | 10.0823 | > 40 | > 10 | 18.348 | 3.4001 |  |
| Cc1c(N)cccc1C(F)(F)F [NCGC00253636-01] | > 33.33 | > 40 | > 10 | > 40 | > 10 |  |
| Fc1cc(Br)ccc1CBr [NCGC00253679-01] | > 33.33 | > 40 |  | > 40 |  |  |
| O=C(CBr)Nc1ccc(Cl)cc1C(=O)c1ccccc1F [NCGC00253724-01] | > 33.33 | > 40 | > 10 | > 40 | > 10 |  |
| CC(C)CCCC(C)NCCC(C)C (stereo not shown) [NCGC00261980-01] | > 33.33 | > 40 | > 10 | > 40 | > 10 |  |
